Test results as given in patent US7619008B2, “Xylitol for treatment of vaginal infections” (Kimberly-Clark Worldwide, Inc., priority 2004, dated 2009).

Columns and labels:
Gardnerella vaginalis [1] = test: Optical density after 24 hours (Example 13); assay type: cell-based; conditions: 1.0% (wt/vol) in growth medium pH 6.0, after 24 hours (FIG. 12)
Experimental: A growth medium for Gardnerella vaginalis was prepared according to the manufacturer's instructions, and the pH of this medium was adjusted to pH 6.0 using 1N HCl. D-ribose (99%, Calbiochem), D-arabinose (98%, Alfa Aesar), D-xylose (Aldrich), D-lyxose (99%, Avovado), D-arabitol (97%, Alfa Aesar), adonitol (99%, Alfa Aesar), xylitol (99%, Alfa Aesar), xylitol (98%, Danisco), and xylitol (98%, Aldrich) were then dissolved into the growth medium at a concentration of 1.0% (wt/vol). 0.9 milliliters of the culture medium was also added into a different culture tube as a control. Thereafter, 0.1 milliliter of Garnerella vaginalis culture suspension (concentration of 1×10^6/milliliter) was added to each of the culture tubes, and then incubated overnight at 37° C., and the optical density was then measured after 24 hours at a wavelength of 595 nanometers. This was accomplished by pipetting 100 microliters of the control or sample solutions into 96-well microplates, and then using a ThermoMax Microplate Reader from Molecular Devices of Sunnyvale, Calif. to obtain the optical density readings. The results are depicted in FIG. 12.

Gardnerella vaginalis [2] = test: Average plate count after 24 hours with gel compositions and solutions (Example 8); assay type: cell-based; conditions: 1 ml sample + 0.8 ml growth medium + 0.2 ml suspension, 24 hours at 37° C., triplicate, compositions per Table 8
Experimental: Samples 1-2 were prepared by dissolving the KELCOGEL® (0.07 grams) and/or xylitol (0.44 grams) into 10 milliliters of water heated to between 70° C. to 80° C. Samples 3-4 and 6 were formed by first autoclaving a gallic acid stock solution (0.75 grams of gallic acid/20 mL water), autoclaving, and then adding 200 microliters of sterile gallic acid (0.0075 grams) to each sterile solution. Sample 5 was formed by dissolving 0.44 grams of xylitol in deionized water, followed by autoclaving. Sample 7 was formed by dissolving 0.44 grams of xylitol in sterilized growth medium for Gardnerella vaginalis and then filtering. The amount of xylitol was selected to yield isotonic solutions. After vortexing the solutions to help dissolve the solids, they were allowed to cool to room temperature.
Upon formation, 1 milliliter of each control or sample solution was then added into a culture tube, followed by the addition of 0.8 milliliters of growth medium for Gardnerella vaginalis. To this mixture was added 0.2 milliliters of a Gardnerella vaginalis suspension (at a concentration of around 10^6 cfu/ml; diluted from 10^8 cfu/ml stock). The tubes were incubated in culture tubes at 37° C. After 24 and 48 hours, the optical density was measured for each sample at wavelengths of 450 and 595 nanometers. The 24-hr solution samples were then diluted at 0.001× and 0.0001×. 3 milliliters of growth medium were then added into the 24-hour composition samples, followed by 1 hour of shaking at 30° C. Solution was then taken from well-shaken test tubes and diluted at 0.001× and 0.0001×. “WASP” (Whitely Automatic Spiral Plate) spiral plating equipment from Don Whitely Scientific Limited was used to plate 100 microliters of the above solutions onto agar plates. The plates were incubated overnight at 35° C. The number of colonies on each plate was counted using ProtoCol® software from Synbiosis of Frederick, Md. All samples were plated in triplicate.

Gardnerella vaginalis [3] = test: Zone of inhibition on agar plates (Examples 1 and 4); assay type: cell-based; conditions: 10%, tested as in Example 1
Experimental: Gardnerella vaginalis was obtained from the American Type Culture Collection (ATCC #14018). The culture medium was Casman's medium base (BD 229010) with 5% rabbit blood (ATCC medium 70).
A microorganism culture of 10^5cfu (colony forming units)/ml in a 1× phosphate buffered saline (PBS) solution (diluted from 10× PBS LIQUID CONCENTRATE from VWR Cat. No. EM-6507] was used. One milliliter of the solution was plated on proper agar plates, depending on which microorganism was being tested. The agar plates were incubated at 35° C. for 4 hours. Three 4-millimeter diameter wells were then punched in each agar plate. […] No. 28390, Pierce Biotechnology, Inc., Rockford, Ill.) was added to one well of each plate. Into each of the other two wells were added MES buffer and 1% benzyl quats (diluted from BARDAC® 205M, from Lonza Inc., Fair Lawn, N.J.) as negative and positive controls, respectively. The plates were incubated overnight at 35° C.
The following day, the “zone of inhibition” for each sample was then measured for Gardnerella vaginalis and Lactobacillus acidophilus activity. The “zone of inhibition” is a circular zone formed around the agar plate in which the growth of the microorganism is inhibited. Absent treatment with an effective antimicrobial agent, the bacterial cells would normally produce an opaque lawn of growth. However, when growth is inhibited, a clear zone is observed. […]

[4] = test system: Lactobacillus acidophilus; test: as above; assay type: cell-based; conditions: 10%, tested as in Example 1
Experimental: Lactobacillus acidophilus was obtained from the American Type Culture Collection (ATCC #4356). The culture medium was Lactobacilli MRS broth (ATCC medium 416).
A microorganism culture of 10^5cfu (colony forming units)/ml in a 1× phosphate buffered saline (PBS) solution (diluted from 10× PBS LIQUID CONCENTRATE from VWR Cat. No. EM-6507] was used. One milliliter of the solution was plated on proper agar plates, depending on which microorganism was being tested. The agar plates were incubated at 35° C. for 4 hours. Three 4-millimeter diameter wells were then punched in each agar plate. A test sample of 100 microliters of 5% xylitol in sterilized 2-N-morpholino ethane sulfonic buffer (0.1 M 2-[morpholino]-ethanesulfonic acid, 0.9% NaCl, pH 4.7, prepared from BupH™ MES Buffer Saline Pack from Cat. No. 28390, Pierce Biotechnology, Inc., Rockford, Ill.) was added to one well of each plate. Into each of the other two wells were added MES buffer and 1% benzyl quats (diluted from BARDAC® 205M, from Lonza Inc., Fair Lawn, N.J.) as negative and positive controls, respectively. The plates were incubated overnight at 35° C.
The following day, the “zone of inhibition” for each sample was then measured for Gardnerella vaginalis and Lactobacillus acidophilus activity. The “zone of inhibition” is a circular zone formed around the agar plate in which the growth of the microorganism is inhibited. […]

Gardnerella vaginalis [5] = test: Optical density of culture tubes (Example 2); assay type: cell-based; conditions: 2, 4, 6 and 24 hours at 37° C., n=4
Experimental: (§1) Test compounds were dissolved in culture media to form a suspension. Control or xylitol solutions (0.9 milliliters) were filtered and added into culture tubes, and to this was added 0.1 milliliter of either the Gardnerella vaginalis or Lactobacillus acidophilus suspension at a concentration of around 10^6 cfu/milliliter. The culture tubes were then incubated overnight at 37° C., whereafter the optical density was measured at 2, 4, 6 and 24 hours by pipetting 100 microliters of the control or sample solutions into 96-well microplates, and then using a ThermoMax Microplate Reader (Molecular Devices of Sunnyvale, Calif.) to obtain the optical density readings at 590 or 600 nm wavelengths. […] The inhibition effect remained evident throughout the 24-hour experimental period.

[6] = test system: Lactobacillus acidophilus; test: Optical density of culture tubes (Example 2); assay type: cell-based; conditions: 2, 4, 6 and 24 hours at 37° C., n=4
Experimental: as §1

Candida albicans = test: Viable cell count after 24 hours (Example 12); assay type: cell-based; conditions: xylitol 1%, 2%, 3%, 4%, 5.0% (wt/vol) in YM medium pH 6.0, after 24 hours (FIG. 11)
Experimental: A YM culture medium was prepared according to the manufacturer's instructions, and the pH of this medium was adjusted to pH 6.0 using 1N HCl. Xylitol was then dissolved into the YM medium at concentrations of 1%, 2%, 3%, 4%, and 5.0% (wt/vol). 0.9 milliliters of the culture medium were also added into a different culture tube as a control. Thereafter, 0.1 milliliter of Candida albicans culture suspension (concentration of 1×10^6/milliliter) was added to each of the culture tubes, and then incubated at 37° C. The viable Candida albicans cells in each tube were counted under a microscope after 24 hours. The above procedure was repeated four times for each concentration and the control.

Trichomonas vaginalis = test: Viable cell count under microscope (Example 10); assay type: cell-based; conditions: for Trichomonas vaginalis cell count in comparison to the control group: xylitol 0.5%, 3.0%, 5.0%
Experimental: Trichomonas vaginalis was obtained from the American Type Culture Collection (ATCC #30001). The culture medium was LYI-S-2 medium (ATCC medium 2154). A sterile LYI-S-2 medium was prepared according to the manufacturer's instructions, and the pH of this medium was adjusted to pH 6.0 using 1 N HCl. Xylitol was then dissolved into the LYI-S-2 medium at concentrations of 0.5%, 3.0%, and 5.0% (wtvol). 0.9 milliliters of xylitol and culture medium (as control) were also added into different culture tubes. Thereafter, 0.1 milliliter of Trichomonas vaginalis culture suspension (concentration of 1×10^6/milliliter) was added to each of the culture tubes, and then incubated at 35° C. on a 15 degree horizontal slant. The viable Trichomonas vaginalis cells in each tube were counted under a microscope after 24 and 48 hours. The above procedure was repeated four times for each concentration of xylitol and the control.

[7] = pH and gelation properties of acid-modified KELCOGEL/xylitol solutions (Example 5); assay type: physicochemical; conditions: 4.4% (wt/vol) xylitol in 0.7% KELCOGEL solutions
Experimental: Solutions were formed from xylitol and a gellan gum obtained from CP Kelco U.S., Inc. of Chicago, Ill. under the name KELCOGEL®. The solutions contained 0.7% (wt/vol) of the KELCOGEL® gum and 4.4% (wt/vol) xylitol, and were formed by dissolving 0.07 grams of the polymer powder and 0.44 grams of xylitol into 10 milliliters of water at a temperature between 70° C. to 80° C. After vortexing the solutions to help dissolve the solids, they were allowed to cool to room temperature. After cooling, the pH of the solutions was adjusted using varying amounts of either acetic acid or lactic acid.

Gardnerella vaginalis [8] = test: Plate count after 6 hours treatment (Example 3); assay type: cell-based; conditions: for Plate Count, G. Vaginalis: 6 hours at 37° C., n = 4
Experimental: (§2) Test compounds were dissolved in culture media to form a suspension. Control or xylitol solutions (0.9 milliliters) were filtered and added into culture tubes. To these solutions, 0.1 milliliter of the Gardnerella vaginalis or Lactobacillus acidophilus suspension was then added at a concentration of around 10^6 cfu/milliliter. The culture tubes were incubated at 37° C. for 6 hours. The samples in the culture tubes were then diluted at 1, 10 and 100 times, and 100 microliters of each dilution was plated onto agar plates with WASP (Whitely Automatic Spiral Plate) spiral plating equipment from Don Whitely Scientific Limited, USA. The plates were incubated overnight at 35° C., and the numbers of colonies were counted on each plate by either ProtoCol® from Synbiosis, Frederick, Md., USA Whitely Scientific Limited, USA or by hand count. The results are shown below in Tables 2-3 and in FIG. 2,

[9] = test system: Lactobacillus acidophilus; test: Plate count after 6 hours treatment (Example 3); assay type: cell-based; conditions: for Plate Count, L. acidophilus: 6 hours at 37° C., n = 4
Experimental: as §2

## O=C[C@H](O)[C@H](O)[C@H](O)CO [D-ribose]
Gardnerella vaginalis [1]
  Gardnerella vaginalis cell count in comparison to the control group (optical density 595 nanometers): significantly reduced

## O=C(O)c1cc(O)c(O)c(O)c1 [Gallic acid, trihydroxybenzoic acid]
Gardnerella vaginalis [2]
  Average Plate Count, Gardnerella vaginalis: 3.43 × 10^4

## OC[C@@H](O)[C@H](O)[C@@H](O)CO [Xylitol in growth media, xylitol]
Gardnerella vaginalis [2]
  Average Plate Count, Gardnerella vaginalis: 2.40 × 10^4

## O=C[C@H](O)[C@@H](O)[C@H](O)[C@H](O)CO [glucose]
Gardnerella vaginalis [3]
  zone of inhibition, Gardnerella vaginalis: 0 mm
[4]
  zone of inhibition, Lactobacillus acidophilus: 0 mm

## OC[C@@H](O)[C@@H](O)[C@H](O)[C@@H](O)CO [sorbitol]
Gardnerella vaginalis [3]
  zone of inhibition, Gardnerella vaginalis: 0 mm
[4]
  zone of inhibition, Lactobacillus acidophilus: 0 mm

## OC[C@@H](O)[C@H](O)[C@@H](O)CO [xylitol, D-xylitol]
Gardnerella vaginalis [5]
  inhibition of growth of Gardnerella vaginalis (optical density, FIG. 3): significant inhibition
[6]
  inhibition of growth of Lactobacillus acidophilus (optical density, FIG. 4): did not exhibit any significant inhibition
Candida albicans
  Candida albicans cell count in comparison to the control group: significantly reduced
Trichomonas vaginalis; 3% xylitol, after 48 hours
  live Trichomonas vaginalis cells: No live
Trichomonas vaginalis; 5% xylitol, after 48 hours
  live Trichomonas vaginalis cells: No live
Trichomonas vaginalis; after 24 hours, pH 6.0, 35° C. (FIG. 8)
  Trichomonas vaginalis cell count in comparison to the control group: significantly reduced
Trichomonas vaginalis; after 48 hours, pH 6.0, 35° C. (FIG. 9)
  Trichomonas vaginalis cell count in comparison to the control group: even more significant inhibitory effect
Gardnerella vaginalis [2]
  Average Plate Count, Gardnerella vaginalis: significant inhibition
Gardnerella vaginalis [2]; listed as Xylitol
  Average Plate Count, Gardnerella vaginalis: 1.56 × 10^4
[7]
  effect on gelation ability of the polymer: did not appear to negatively impact
Gardnerella vaginalis [1]
  Gardnerella vaginalis cell count in comparison to the control group (optical density 595 nanometers): significantly reduced
Gardnerella vaginalis [8]; 1% xylitol
  Plate Count, G. Vaginalis: *1.24E+05
Gardnerella vaginalis [8]; 2% xylitol
  Plate Count, G. Vaginalis: *1.64E+03
Gardnerella vaginalis [8]; 3% xylitol
  Plate Count, G. Vaginalis: *4.63E+02
Gardnerella vaginalis [8]; 4% xylitol
  Plate Count, G. Vaginalis: *1.03E+02
Gardnerella vaginalis [8]; 5% xylitol
  Plate Count, G. Vaginalis: *1.98E+01
Gardnerella vaginalis [8]; all five concentrations (1-5% xylitol), 6 hours
  inhibition of Gardnerella vaginalis growth compared to the control group: significant inhibition
[9]; 1% and 5% xylitol, 6 hours
  inhibition of the growth of Lactobacillus acidophilus: did not exhibit any significant inhibition
[9]; 1% xylitol
  Plate Count, L. acidophilus: 3.77 ± 0.49 E+05
[9]; 5% xylitol
  Plate Count, L. acidophilus: 3.97 ± 0.36 E+05
